Experimental data published in ChEMBL document CHEMBL1155255, “Ruthenium complexes endowed with potent anti-Trypanosoma cruzi activity: Synthesis, biological characterization and structure-activity relationships” (Bioorg Med Chem, 2009).

Experiments:
[1] = system: Trypanosoma cruzi; assay: Antitrypanosomal activity against Trypanosoma cruzi Y trypomastigote form after 24 hrs by Trypan blue exclusion method; assay type: functional, organism-based
[2] = Cytotoxicity against BALB/c mouse splenocytes after 24 hrs by [3H]thymidine incorporation assay; assay type: cell-based; settings: splenocyte
[3] = system: Trypanosoma cruzi; assay: Antitrypanosomal activity against Trypanosoma cruzi Y epimastigote form after 11 days by Trypan blue exclusion method; assay type: functional, organism-based; settings: 264 h

SMILES | IC50 [1] [µM] | Activity [2] [µg/mL] | IC50 [3] [µM]
Cc1ccc(SC/C=N\NC2=NC(=O)C(C)S2)cc1 (stereo unspecified) | 84.8 | > 100 | 63.4
CCC1SC(N/N=C\CSc2ccccc2)=NC1=O (stereo unspecified) | 48.2 | > 100 | 0.3
O=C1CSC(N/N=C\CSc2ccccc2)=N1 | 7.8 | > 100 | 35
O=C1CSC(N/N=C\CSc2ccc(Cl)cc2)=N1 | 82.4 | > 100 | 43.9
O=C(Cn1ccnc1[N+](=O)[O-])NCc1ccccc1 [BENZNIDAZOLE] | – | 25 | 6.6
O=C1CSC(N/N=C\CCSc2ccccc2)=N1 | 10 | > 100 | 2.9
CC1CS(=O)(=O)CCN1/N=C/c1ccc([N+](=O)[O-])o1 (stereo unspecified) [NIFURTIMOX] | – | 1 | 1.9
Cc1ccc(SC/C=N\NC2=NC(=O)CS2)cc1 | 20 | > 100 | 92.3
O=C1CSC(N/N=C\CSc2ccc(Br)cc2)=N1 | – | > 100 | 42.9
C/C(CSc1ccccc1)=N/NC1=NC(=O)C(C)S1 (stereo unspecified) | – | > 100 | 83.3
